Assay results reported in US12729377B2, “RNAi agents and compositions for inhibiting expression of angiopoietin-like 3 (ANGPTL3), and methods of use” (Arrowhead Pharmaceuticals, Inc., priority 2017, dated 2026).
In the oligonucleotide strings, read from the 5' end, every base follows the letter of its sugar. An asterisk marks phosphorothioate; unmarked linkages are phosphodiester. Other units and linkages are bracketed, terminal groups are in braces. A string of capitals states the bases alone. {NAG37} = tridentate N-acetyl-galactosamine targeting ligand, structure (NAG37)s; [invAb] = inverted abasic unit; m = 2'-O-methyl; f = 2'-fluoro

What was measured:
[1] = system: ANGPTL3 protein; experiment: Example 3: serum ANGPTL3 protein by ELISA in mice; type: in vivo, C57bl/6 mice; details: 1.0 mg/kg single subcutaneous dose on day 1, serum, female C57bl/6 mice
Description: (§1) To assess the in vivo activity of ANGPTL3 RNAi agents that are designed to target positions 921 and 922 on the ANGPTL3 gene, six- to eight-week-old female C57bl/6 mice were used. Pre-dose serum samples were taken at day −1 after a four hour fast. At day 1, each mouse was given a single subcutaneous administration of 200 μl containing either 1 mg/kg (mpk) of an ANGPTL3 RNAi agent in D5W (dextrose in 5% water), or control (D5W) with no RNAi agent, according to the dosing groups recited in Table 12.
(§2) Each of the RNAi agents included a modified sequence and an N-acetyl-galactosamine-containing targeting ligand conjugated to the 5′ terminal end of the sense strand. (See Tables 3, 4, and 5 for modified sequences and targeting ligand structures). The injections were performed between the skin and muscle (i.e. subcutaneous injections) into the loose skin over the neck and shoulder area. Three (3) mice in each group were tested (n=3). […] Mice were fasted for four hours prior to each collection. ANGPTL3 protein levels in serum were measured by ELISA assay (R&D Systems), according to the manufacturer's recommendations. Triglycerides, high-density lipoprotein (HDL), and total cholesterol in serum were measured on a Cobas® Integra 400 (Roche Diagnostics), according to the manufacturer's recommendations.
(§3) The ANGPTL3 protein levels, triglyceride levels, HDL levels, and total cholesterol levels for each animal were normalized. For normalization, the level of ANGPTL3 protein, triglyceride, HDL, and total cholesterol, respectively, for each animal at a time point, was divided by the pre-treatment level of expression in that animal (in this case at day −1) to determine the ratio of expression “normalized to pre-treatment.” Expression at a specific time point was then normalized to the D5W control group by dividing the “normalized to pre-treatment” ratio for an individual animal by the mean “normalized to pretreatment” ratio of all mice in the D5W control group.

[2] = system: ANGPTL3 gene; experiment: Example 3: serum HDL in mice; type: in vivo
Description: as §1, §2, §3

[3] = system: ANGPTL3 gene; experiment: Example 4: serum HDL in mice; type: in vivo, C57bl/6 mice
Description: as §1, with “target additional” for “target”, “positions” for “positions 921 and 922”, “(mpk) or 0.5 mg/kg (mpk)” for “(mpk)”, “17.” for “12.”
(§4) Each of the RNAi agents included a modified sequence and an N-acetyl-galactosamine-containing targeting ligand conjugated to the 5′ terminal end of the sense strand. (See Tables 3, 4, and 5 for modified sequences and targeting ligand structures). The injections were performed between the skin and muscle (i.e. subcutaneous injections) into the loose skin over the neck and shoulder area. Three (3) mice in each group were tested (n=3). Serum was collected on days 8, 15, 22, 29, and day 43 (Groups 1-3, 9, and 11-13 only). Mice were fasted for four hours prior to each collection. ANGPTL3 protein levels in serum were measured by ELISA assay (R&D Systems), according to the manufacturer's recommendations. Triglycerides, high-density lipoprotein (HDL), and total cholesterol in serum were measured on a Cobas® Integra 400 (Roche Diagnostics), according to the manufacturer's recommendations.
as §3

[4] = system: ANGPTL3 gene; experiment: Example 7: serum triglycerides in mice; type: in vivo, C57bl/6 mice; design: key: ratio: (level/pre-treatment day -1 level) ÷ mean of D5W control group
Description: (§5) To further assess the in vivo activity of additional ANGPTL3 RNAi agents that are designed to target position 304 on the ANGPTL3 gene, six- to eight-week-old female C57bl/6 mice were used. Pre-dose serum samples were taken at day −1 after a four hour fast. At day 1, each mouse was given a single subcutaneous administration of 200 μl containing 0.5 mg/kg (mpk) of an ANGPTL3 RNAi agent in D5W (dextrose in 5% water), or control (D5W) with no RNAi agent, according to the dosing groups recited in Table 31.
as §4, with “22,” for “22, 29,”, “29.” for “day 43 (Groups 1-3, 9, and 11-13 only).”, “Triglycerides, total cholesterol,” for “Triglycerides,”, “low-density lipoprotein (LDL)” for “total cholesterol”
(§6) The ANGPTL3 protein levels, triglyceride levels, total cholesterol levels, HDL levels, and LDL levels for each animal were normalized. For normalization, the level of ANGPTL3 protein, triglyceride, HDL, and total cholesterol, respectively, for each animal at a time point, was divided by the pre-treatment level of expression in that animal (in this case at day −1) to determine the ratio of expression “normalized to pre-treatment.” Expression at a specific time point was then normalized to the D5W control group by dividing the “normalized to pre-treatment” ratio for an individual animal by the mean “normalized to pretreatment” ratio of all mice in the D5W control group.

[5] = system: ANGPTL3 gene; experiment: Example 7: serum HDL in mice; type: in vivo; design: key: ratio: (level/pre-treatment day -1 level) ÷ mean of D5W control group; details: 0.5 mg/kg single SC injection day 1, female C57bl/6 mice, n=3, ratio to D5W control
Description: as §5
as §4, with “22,” for “22, 29,”, “29.” for “day 43 (Groups 1-3, 9, and 11-13 only).”, “Triglycerides, total cholesterol,” for “Triglycerides,”, “low-density lipoprotein (LDL)” for “total cholesterol”
as §6

[6] = Day 8, 1.0 mg/kg single subcutaneous dose on day 1, female C57bl/6 mice
[7] = Day 15, 1.0 mg/kg single subcutaneous dose on day 1, female C57bl/6 mice
[8] = Day 22, 1.0 mg/kg single subcutaneous dose on day 1, female C57bl/6 mice
[9] = Day 29, 1.0 mg/kg single subcutaneous dose on day 1, female C57bl/6 mice

Substance: AD05418: RNAi agent duplex: antisense AM07159-AS, sense AM07158-SS (antisense mU*fU*mU*fGmAfAmUfUmAfAmUfGmUfCmCfAmUfGmGfG*mU; sense {NAG37}*[invAb]*mAmCmCmCmAmUmGmGfAfCfAmUmUmAmAmUmUmCmAmAmA*[invAb])
- Avg ANGPTL3 (Average ANGPTL3 Protein Normalized to Pre-Treatment and Control) ([1]; Day 8): 0.236
- Avg ANGPTL3 (Average ANGPTL3 Protein Normalized to Pre-Treatment and Control) ([1]; Day 15): 0.290
- Avg ANGPTL3 (Average ANGPTL3 Protein Normalized to Pre-Treatment and Control) ([1]; Day 22): 0.394
- Avg ANGPTL3 (Average ANGPTL3 Protein Normalized to Pre-Treatment and Control) ([1]; Day 29): 0.517
- Avg HDL (Average HDL Normalized to Pre-Treatment and Control) [2, 6]: 0.766
- Avg HDL (Average HDL Normalized to Pre-Treatment and Control) [2, 7]: 0.823
- Avg HDL (Average HDL Normalized to Pre-Treatment and Control) [2, 8]: 0.910
- Avg HDL (Average HDL Normalized to Pre-Treatment and Control) [2, 9]: 0.916
- Avg HDL, normalized to pre-treatment and control ([3]; Day 8, 1.0 mg/kg single SC injection on day 1, n=3): 0.828
- Avg HDL, normalized to pre-treatment and control ([3]; Day 15, 1.0 mg/kg single SC injection on day 1, n=3): 0.730
- Avg HDL, normalized to pre-treatment and control ([3]; Day 22, 1.0 mg/kg single SC injection on day 1, n=3): 0.846
- Avg HDL, normalized to pre-treatment and control ([3]; Day 29, 1.0 mg/kg single SC injection on day 1, n=3): 0.845
- Avg HDL, normalized to pre-treatment and control ([3]; Day 43, 1.0 mg/kg single SC injection on day 1, n=3): 1.018
- Avg TG, normalized to pre-treatment and control ([4]; Day 8, 0.5 mg/kg single SC injection on day 1, n=3): 0.830
- Avg TG, normalized to pre-treatment and control ([4]; Day 15, 0.5 mg/kg single SC injection on day 1, n=3): 0.655
- Avg TG, normalized to pre-treatment and control ([4]; Day 22, 0.5 mg/kg single SC injection on day 1, n=3): 0.815
- Avg TG, normalized to pre-treatment and control ([4]; Day 29, 0.5 mg/kg single SC injection on day 1, n=3): 0.586
- Avg HDL, normalized to pre-treatment and control ([5]; Day 8): 0.907
- Avg HDL, normalized to pre-treatment and control ([5]; Day 15): 0.857
- Avg HDL, normalized to pre-treatment and control ([5]; Day 22): 0.910
- Avg HDL, normalized to pre-treatment and control ([5]; Day 29): 1.048

Substance: AD05307: RNAi agent duplex: antisense AM07001-AS, sense AM07000-SS (chain 1 mU*fU*mU*fGmAfAmUfUmAfAmUfGmUfCmCfAmUfGmGmG*mC; chain 2 {NAG37}*[invAb]*mGmCmCmCmAmUmGmGfAfCfAmUmUmAmAmUmUmCmAmAmA*[invAb])
- Avg ANGPTL3 (Average ANGPTL3 Protein Normalized to Pre-Treatment and Control) ([1]; Day 8): 0.323
- Avg ANGPTL3 (Average ANGPTL3 Protein Normalized to Pre-Treatment and Control) ([1]; Day 15): 0.311
- Avg ANGPTL3 (Average ANGPTL3 Protein Normalized to Pre-Treatment and Control) ([1]; Day 22): 0.346
- Avg ANGPTL3 (Average ANGPTL3 Protein Normalized to Pre-Treatment and Control) ([1]; Day 29): 0.486
- Avg HDL (Average HDL Normalized to Pre-Treatment and Control) [2, 6]: 0.916
- Avg HDL (Average HDL Normalized to Pre-Treatment and Control) [2, 7]: 0.856
- Avg HDL (Average HDL Normalized to Pre-Treatment and Control) [2, 8]: 0.913
- Avg HDL (Average HDL Normalized to Pre-Treatment and Control) [2, 9]: 1.053
